Experimental data: patent US8114619B2, “Methods for diagnosis and optimizing treatment of multiple sclerosis” (The Johns Hopkins University, priority 2006, dated 2012)
“Also recorded” adds a separate entry of the source. Non-standard residues stand in square brackets, D forms with d. Residues, ends and D or L forms follow the SMILES beside them. *: point of attachment. Sta = CC(C)C[C@H](N)[C@@H](O)CC(=O)O; Isovaleryl = CC(C)CC(=O)*; 4Abz = Nc1ccc(C(=O)O)cc1; NHOH = ON*

Key:
[1] = system: rat mixed hippocampal cultures; assay: in vitro neuroprotection assay against 3-NP, MTT viability; details: for protection from oxidative damage elicited by 3-NP: preincubated one hour prior to 18 hour exposure to 3 mM 3-NP
Description: 5, 2007. In Tables 5 and 6 “% Protection vs 3-NP” refers to the increase in cultured neuron viability in the presence of the oxidative stressor 3-nitropropionic acid. For details of the assay, see Example 3 below.
(§1) We sought to evaluate the protective efficacy of a number of modified terpenoid compounds against the against many different neurotoxins, ranging from the chemotoxic 6-OHDA, NMDA, 3-nitropropionic acid (3-NP), and viral proteins such as Tat and gp120. Thus, we established an in vitro neuroprotection assay using rat mixed hippocampal cultures, in which we evaluated the protective efficacy of neuroprotective compounds disclosed herein. The oxidative stressor 3-NP was used to elicit toxicity in the rat hippocampal cultures to mimic the oxidative damage, reactive oxygen species production and ensuing neurodegeneration resulting from HIV infection. Another measure of neurotoxicity which results from HIV infection was evaluated by exposure of the hippocampal cultures to HIV-1 Tat (Li et al (2005), Neurotox Res, 8(1-2):119-134).
(§2) Rat mixed hippocamal neuronal cultures were generated from freshly dissected rat hippocampi (embryonic day 18) in neurobasal media containing 5% fetal bovine serum and 2% B27 supplement. The cells were plated into 96 well plates at a density of 4×10^5 cells/mL and routinely used on days 11-14 following culturing. Cell viability was assessed with MTT [3-(4,5-dimethylthiazol-2-yl)-2,5-diphenyltetrazolium bromide] assay. The MTT assay is based on the ability of a mitochondrial dehydrogenase enzyme from viable cells to cleave the tetrazolium rings of the pale yellow MTT and form dark blue formazan crystals. See Mosmann (1983), J Immunol Methods, 65(1-2):55-63. These crystals are largely impermeable to cell membranes, and thus accumulate within healthy cells. The resultant formazan precipitates are solubilized with DMSO and read on a multiwell scanning spectrophotometer (ELISA reader). The number of surviving cells is directly proportional to the level of the formazan product created.
Mixed hippocampal cultures were incubated with 3-NP (0.5-10 mM) for 18 hours and then assessed for viability using an MTT assay.
(§3) Cultures were preincubated with GPI 1046 or Resveratrol for one hour prior to an 18 hour exposure to 3 mM 3-NP. […] The same neuroprotective compounds were evaluated for efficacy against HIV-1 Tat protein toxicity using the same 1 hour preincubation protocol.

cystatin C = assay: effect of protease inhibitors on cystatin C cleavage in CSF; type: biochemical, human; details: control CSF with only full length cystatin C, room temperature 48 hours; FN-439 and pepstatin A 500 ug/ml
Method: We incubated control CSF which contained only the full length cystatin C at room temperature for 48 hours in the presence of various protease inhibitors and monitored it for the presence of the 12.5 kD fragment.

[2] = system: rat mixed hippocampal cultures; assay: neuroprotection against HIV-1 Tat toxicity; type: cell-based; details: for protection from HIV-1 Tat toxicity: 1 hour preincubation
Description: as §1, §2, §3

[3] = system: human fetal neuronal cultures; assay: protection of human fetal neurons against 3-NP; type: cell-based
Description: (§4) Finally, we sought to determine if the compounds tested in rat neuronal cultures would also be effective on cultured human fetal neurons.

rat neuronal cultures [4] = assay: protection against 6-OHDA neurotoxicity; type: cell-based
Description: as §1
(§5) Rat mixed hippocamal neuronal cultures were generated from freshly dissected rat hippocampi (embryonic day 18) in neurobasal media containing 5% fetal bovine serum and 2% B27 supplement. The cells were plated into 96 well plates at a density of 4×10^5 cells/mL and routinely used on days 11-14 following culturing. Cell viability was assessed with MTT [3-(4,5-dimethylthiazol-2-yl)-2,5-diphenyltetrazolium bromide] assay. […] The resultant formazan precipitates are solubilized with DMSO and read on a multiwell scanning spectrophotometer (ELISA reader). […]

[5] = system: human fetal neuronal cultures; assay: protection of human fetal neurons against 6-OHDA; type: cell-based
Description: as §4

rat neuronal cultures [6] = assay: protection against NMDA excitotoxicity; type: cell-based
Description: as §1, §5

cathepsin B = molecular target: T1, cathepsin B (Homo sapiens, UniProt P07858); assay: cathepsin B functional assay; type: biochemical; details: for inhibition of cathepsin B activity: untreated recombinant protein, or protease alone; for ability to inhibit cathepsin B after treatment of cystatin C with MMP-2: recombinant cystatin C treated with MMP-2; for cathepsin B activity after treatment of cystatin C with cathepsin D: recombinant cystatin C treated with cathepsin D
T1 construct: Cell lysates were prepared using a lysis buffer provided with the assay kit; host or cells: THP-1 cell lysate
Method: The activity of cathepsin B, a substrate of cystatin C, was measured using an activity assay kit (Biovision Research Products, Mountain View, Calif.). This fluorescence-based assay utilizes the cathepsin-B substrate sequence Arg-Arg labeled with amino-4-trifluoromethyl coumarin […]. Cathepsin-B cleaves the synthetic substrate RR-AFC to release free AFC. THP-1 cells (a monocytic cell line) were used as a source of cathepsin B. Cell lysates were prepared using a lysis buffer provided with the assay kit. Cell lysates from 1×10^6 cells were added to 50 μl of CSF in a microtiter plate (q.s. 100 μl). Two μl of substrate Ac-Arg-Arg-AFC was added to each well and incubated for 1 hr at 37° C. Absorbance was measured using a fluorescent plate reader with a 400 nm excitation filter and 505 nm emission filter. Controls included reaction buffer alone and a cathepsin B inhibitor provided in the kit. All samples were analyzed in duplicate.
Recombinant cystatin C was produced and the ability of MMP-2 and cathepsin D to cleave the recombinant protein was confirmed. As expected, cathepsin D cleaved cystatin C at four different sites, and yielded a 12.5 kD fragment following cleavage from the C terminal region (9). In contrast, MMP-2 cleaved cystatin C at three unique sites (GK, FC, and GT which correspond to amino acids 4,5; 96,97 and 108,109). Recombinant cystatin C was treated with either MMP-2 or cathepsin D and its activity monitored by a cathepsin B functional assay using a kit from Biovision Research Products, Mountain View, Calif. The assay was performed as previously described (4). […] Cathepsin D and MMP-2 alone had no effect on cathepsin B activity (FIG. 9). These observations confirmed that C terminal fragmentation of cystatin C leads to a gain in activity while cleavage in other regions including the N terminal region leads to a loss or decrease of activity of cystatin C.

[7] = listed as Recombinant cystatin C

Q: How did the cytotoxicity ([1]; 3 mM 3-NP, 18 hours, MTT assay) turn out when `O=C(O)CC[N+](=O)[O-]` [Compound 3-NP, 3-nitropropionic acid] was run?
A: 25-35%

Q: How did the “effect on cleavage of cystatin C (12.5 kD fragment)” value (cystatin C) turn out when `CC(C)C[C@@H](NC(=O)[C@@H]1CCCN1C(=O)CNC(=O)c1ccc(N)cc1)C(=O)N[C@H](C)C(=O)NO` [FN-439] (H-[4Abz]GP[dL][dA]-{NHOH}) was run?
A: showed inhibition of the breakdown of cystatin C

Q: With `CC(=O)O[C@@H]1CC2C(C)(C)C(=O)C=C[C@]2(C)C2CC[C@]3(C)[C@@H](c4ccoc4)OC(=O)[C@H]4O[C@]43[C@@]21C` (stereo partly drawn) [GEDUNIN] as the molecule, how does the “neuroprotection from HIV-1 Tat toxicity at 1-10 μM” value ([2]; 1-10 μM) read?
A: nearly complete neuroprotection

Q: What about the “protection from HIV-1 Tat toxicity” value [2] of the same molecule?
A: dose dependently protected

Q: Which “protection from oxidative damage elicited by 3-NP” value [1] does the source give for `CCC(C)(C)C(=O)C(=O)N1CCC[C@H]1C(=O)OCCCc1cccnc1` [GPI 1046, reference compound] here?
A: significantly protected

Q: And the “protection from HIV-1 Tat toxicity” value [2]?
A: protected hippocampal neurons from Tat toxicity

Q: For `CC1(C)O[C@H]2CC(=O)OC[C@]23[C@H]2CC[C@@]4(C)[C@H](c5ccoc5)OC(=O)[C@H]5O[C@]54[C@]2(C)C(=O)C[C@@H]13` [Limonin], which “protection against 3-NP” value [3] is on record?
A: dose-dependently protected

Q: And the “protection against 6-OHDA at highest dose” value (rat neuronal cultures [4]; 10 μM, highest dose tested)?
A: complete protection

Q: And the “block of 6-OHDA neurotoxicity” value (rat neuronal cultures [4]; dose-dependent)?
A: dose-dependently blocked

Q: And the “protection against 6-OHDA” value [5]?
A: dose-dependently protected

Q: What about the “protection from HIV-1 Tat toxicity” value [2] of the same molecule?
A: dose dependently protected

Q: What about the “protection against NMDA at highest dose” value (rat neuronal cultures [6]; 10 μM, highest dose tested) of the same molecule?
A: complete protection

Q: What about the “block of NMDA neurotoxicity” value (rat neuronal cultures [6]; dose-dependent) of the same molecule?
A: dose-dependently blocked

Q: With `C[C@@H]1[C@H](O)[C@@H](C)/C=C/C=C/CC/C=C/C=C/C=C/C=C/C(O[C@H]2O[C@H](C)[C@@H](O)[C@H](N)[C@@H]2O)CC2O[C@](O)(CC(O)C(O)CCC(O)CC(O)CC(O)CC(=O)O[C@H]1C)CC(O)C2C(=O)O` (stereo partly drawn) [NYSTATIN] as the molecule, how does the “% Protection vs 3NP” value ([1]; increase in cultured neuron viability in the presence of 3-nitropropionic acid (Table 6)) read?
A: 46.72%

Q: How did the “protection from oxidative damage elicited by 3-NP” value [1] turn out when `Oc1ccc(C=Cc2cc(O)cc(O)c2)cc1` [RESVERATROL, reference compound] was run?
A: significantly protected

Q: What about the “protection from HIV-1 Tat toxicity” value [2] of the same molecule?
A: protected hippocampal neurons from Tat toxicity

Q: For `CC(C)CC(=O)N[C@H](C(=O)N[C@H](C(=O)N[C@@H](CC(C)C)[C@@H](O)CC(=O)N[C@@H](C)C(=O)N[C@@H](CC(C)C)[C@@H](O)CC(=O)O)C(C)C)C(C)C` [pepstatin A] (Isovaleryl-VV[Sta]A[Sta]-OH), which “effect on cleavage of cystatin C (12.5 kD fragment)” value (cystatin C) is on record?
A: showed inhibition of the breakdown of cystatin C; also recorded: significantly prevented cleavage of cystatin C

Q: Which “inhibition of cathepsin B activity” value (cathepsin B) does the source give for “Cathepsin D: protease that cleaves cystatin C from the C terminal region” here?
A: no effect

B1: MMP-2: matrix metalloprotease that cleaved cystatin C at three sites (protein)
chain: YNFFPRKPKWDKNQITYRIIGYTPDLDPETVDDAFARAFQVWSDVTPLRFSRIHDGEADIMINFGRWEHGDGYPFDGKDGLLAHAFAPGTGVGGDSHFDDDELWTLGEGQVVRVKYGNADGEYCKFPFLFNGKEYNSCTDTGRSDGFLWCSTTYNFEKDGKYGFCPHEALFTMGGNAEGQPCKFPFRFQGTSYDSCTTEGRTDGYRWCGTTEDYDRDKKYGFCPETAMSTVGGNSEGAPCVFPFTFLGNKYESCTSAGRSDGKMWCATTANYDDDRKWGFCPDQGYSLFLVAAHEFGHAMGLEHSQDPGALMAPIYTYTKNFRLSQDDIKGIQELYGASPDIDLGTGPTPTLGPVTPEICKQDIVFDGIAQIRGEIFFFKDRFIWRTVTPRDKPMGPLLVATFWPELPEKIDAVYEAPQEEKAVFFAGNEYWIYSASTLERGYPKPLTSLGLPPDVQRVDAAFNWSKNKKTYIFAGDKFWRYNEVKKKMDPGFPKLIADAWNAIPDNLDAVVDLQGGGHSYFFKGAYYLKLENQSLKSVKFGSIKSDWLGC
Q: How did the “inhibition of cathepsin B activity” value (cathepsin B) turn out when B1 was run?
A: no effect

B2: full length cystatin C: recombinant cystatin C, inhibitor of cysteine proteases including cathepsin B (protein)
chain: SSPGKPPRLVGGPMDASVEEEGVRRALDFAVGEYNKASNDMYHSRALQVVRARKQIVAGVNYFLDVELGRTTCTKTQPNLDNCPFHDQPHLKRKAFCSFQIYAVPWQGTMTLSKSTCQDA
Q: With B2 as the molecule, how does the “ability to inhibit cathepsin B after treatment of cystatin C with MMP-2” value (cathepsin B; [7]) read?
A: inhibition of CysC activity

Q: And the “ability to inhibit cathepsin B after treatment of cystatin C with MMP-2” value (cathepsin B; listed as cystatin C)?
A: decrease in its ability to inhibit cathepsin B activity

Q: What about the “cathepsin B activity after treatment of cystatin C with cathepsin D” value (cathepsin B; [7]) of the same molecule?
A: further enhanced

Q: What about the “cathepsin B activity after treatment of cystatin C with cathepsin D” value (cathepsin B; listed as cystatin C) of the same molecule?
A: further decrease in cathepsin B activity

Q: And the “inhibition of cathepsin B activity” value (cathepsin B)?
A: significant inhibition
